According to patent US9801844B2, “Methods and compositions for the treatment of cancer” (priority 2012, dated 2017):
Values joined by “and” are separate entries in the source; they are usually repeats but may differ in a detail not shown here. Identical values can stand only once. Like-named read-outs stand apart in the source and are kept apart here.

Legend:
[1] = system: SKOV3 (Her2 overexpressing) human ovarian cancer cells; experiment: MTT cell proliferation assay on SKOV3 cells; format: cell-based; conditions: SKOV3, 96 h
Procedure: SKOV3 (Her2 overexpressing) ovarian cancer cells (ATCC, Manassas, Va.), were grown in McCoy's media (Gibco BRL Life Technologies, Inc., Rockville, Md.) containing 10% (v/v) fetal bovine serum (FBS) (Gibco BRL) at 37° C., 5% C02, plus Penn-Strep (Sigma).
The MTT [3-(4,5-dimethyl-2-thiazol)-2,5-diphenyl-2H tetrazolilum bromide] (Dojindo; Tokyo, Japan) cell proliferation assay system (Roche Diagnostic, Mannheim, Germany) was used to determine the sensitivity of the cell lines to agents. Cells were seeded at 1×10^4 cells/well in 96-well plates and allowed to attach for 24 h. The medium was replaced with fresh medium containing DMSO or compound. The cells were treated for 96 h, after which the media was replaced with fresh media; the cells were incubated with MTT reagents and the absorbance read at 650 and 575 nm. The 650 reading was subtracted from the 575 reading to correct for background absorbance.

[2] = system: MDA-MB-453 Her2 overexpressing human breast cancer cells; experiment: MTT cell proliferation assay on MDA-MB-453 cells; format: cell-based; conditions: MDA-MB-453 cells, MTT assay; for IC50: read-out: IC50, concentration that caused 50% inhibition of cell proliferation
Procedure: Cells were exposed to increasing concentrations of agents for 96 h and the number of viable cells determined by the MTT assay.

[3] = system: MDA-MB-468 triple negative breast cancer cells; experiment: MTT cell proliferation assay on MDA-MB-468 cells; format: cell-based, human; conditions: Homo sapiens, MDA-MB-468, MDA-MB-468 cells, MTT assay; read-out: IC50 growth inhibition
Procedure: MDA-MB-453 (ER negative, Her2 overexpressing), MDA-MB-468 (triple negative) and MCF7 (ER positive, Her2 low) cells, HT29 (p53 positive human colon cancer cells) (ATCC, Manassas, Va.) were grown in Dulbecco's Modified Eagle's medium (DMEM) (Gibco BRL Life Technologies, Inc., Rockville, Md.) containing 10% (v/v) fetal bovine serum (FBS) (Gibco BRL) at 37° C., 5% C02. SUM 149 (Her2 overexpressing, ER low) (the gift of Dr. R. Parsons, Columbia University Medical Center, New York, N.Y.) were cultivated in Ham's F-12 medium with 10% FBS. MCF7 and MCF7/Her2-18 (MCF7 cells transfected with a full length Her2 cDNA coding region, 45-fold increase Her2) were the kind gift of Dr. Dennis Slamon (Los Angeles, Calif.). These cells were maintained in RPMI supplemented with 10% FBS plus glutamine (1%) and PSF (1%) (Gibco, Rockville Md.).
MTT assay: the MTT {3-(4,5-dimethyl-2-thiazol)-2,5-diphenyl-2H tetrazolilum bromide} (Dojindo; Tokyo, Japan) cell proliferation assay system (Roche Diagnostic, Mannheim, Germany) was used to determine the sensitivity of the various cell lines to agents. Cells were seeded at 1×10^4 cells/well in 96-well plates and allowed to attach for 24 h. The medium was replaced with fresh medium containing DMSO or compound. The cells were treated for 96 or 120 h, after which they were incubated with MTT reagents and the absorbance read at 650 and 575 nm. For cell growth assays, the data are expressed as mean+/−standard deviation. Control and treated cells were compared using the student's t-test (p<0.05).
To determine the Combination Index (CI), cells were treated with all combinations of 4 or 5 concentrations of each of the agents tested and a solvent control. The results of the MTT assay were analyzed for possible synergistic effects using the median effect principle. Variable ratios of drugs were employees and mutually exclusive equations were assumed.

[4] = biological target: Na+-K+-ATPase; experiment: Enzymatic assay of ATPase activity; format: biochemical; conditions: purified enzyme, in vitro; read-out: 50% inhibition, IC50 value, of Na+-K+-ATPase activity
Procedure: The enzymatic assay of ATPase (adenosine 5′-triphosphatase, EC 3.6.1.3) followed the Sigma Prod. No. A-7510 protocol (Sigma-Aldrich, St. Louis, Mo., USA). Agents (0.05 ml) were pipetted with ATPase (0.05 ml, 0.5 units/ml, Sigma-Aldrich, St. Louis, Mo., USA), mixed and equilibrated for 5 min at 37° C. Taussky-Shorr reagent (10 ml of 10% ammonium molybdate in 10 N H2SO4) was pipetted to 70 ml H2O, 5 g of ferrous sulfate heptahydrate was added, and the volume was brought to 100 ml with H2O. Test supernatant (0.5 ml) and H2O (0.5 ml) were mixed and incubated at 25° C., and the absorbance read at A660 nm.
To determine whether the Na+-K+-ATPase is involved in the mechanism of action of CA and curcumin, the ability of these agents to inhibit the in vitro activity of the purified enzyme was assayed.

Q: Which results are given for `CC(=O)O[C@@H]1C[C@@]23C[C@@]24CC[C@H](O[C@@H]2OC[C@@H](O)[C@H](O)[C@H]2O)C(C)(C)[C@@H]4CC[C@H]3[C@]2(C)C[C@@H]3O[C@]4(C[C@@H](C)[C@@H]3[C@@]12C)O[C@H](O)[C@@]1(C)O[C@@H]41` [ACT, actein, reference compound]?
A: % cell proliferation ([1]; 5 μg/ml): 114.4%; % cell proliferation ([1]; 10 μg/ml): 116.1%; % cell proliferation ([1]; 15 μg/ml): 108.0%; % cell proliferation ([1]; 20 μg/ml): 98.1%

Q: With `O=C(O[C@@H]1Cc2c(O)cc(O)cc2O[C@@H]1c1cc(O)c(O)c(O)c1)c1cc(O)c(O)c(O)c1` [EGCG, reference compound] as the compound, how does the “IC50, concentration that caused 50% inhibition of cell proliferation” value [2] read?
A: ~100 µg/mL

Q: And the IC50 [2]?
A: 218 µM

Q: Which results are given for `COc1cc(/C=C/C(=O)CC(=O)/C=C/c2ccc(O)c(OC)c2)ccc1O` [curcumin]?
A: IC50 [3]: 2.3 µg/mL and 6.2 µM; IC50 [4]: ~2 µM; IC50 ([2]; Homo sapiens): 2 µg/mL and 5.4 µM

Q: How did the IC50 ([2]; Homo sapiens) turn out when `Oc1ccc(C=Cc2cc(O)cc(O)c2)cc1` [resveratrol, reference compound] was run?
A: 4 µg/mL and 17.5 µM

Q: For `O=C(/C=C/c1ccc(O)c(O)c1)O[C@H](Cc1ccc(O)c(O)c1)C(=O)O` [rosmarinic acid, reference compound], which IC50 ([2]; Homo sapiens) is on record?
A: ~56 µg/mL and ~150 µM
